Assay results from PubChem BioAssay (NCI).
Several values for one entry are separate records, joined by “and”; a condition that tells them apart may be missing. Equal entries are not always repeated.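 96-well plates; 48 h exposure; 5 concentrations. Endpoints by linear interpolation between flanking doses. Not reached: highest tested concentration assigned. TGI denotes the concentration required for complete inhibition of growth.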

Key:
Experiment in all cases: NCI anticancer screen, dose series, 48 h
DMS 114 small cell lung = system: DMS 114 small cell lung
DMS 273 small cell lung = system: DMS 273 small cell lung
XF 498 CNS = system: XF 498 CNS
HOP-18 NSCLC = system: HOP-18 NSCLC

SMILES | TGI (DMS 114 small cell lung) | TGI (DMS 273 small cell lung) | TGI (XF 498 CNS) | TGI (HOP-18 NSCLC) [µM]
CC(C)=CCSC1CC2C(CC1(C)O)C2(C)C (configuration not stated) | 30.7 µM and 21.7 µM | 29.9 µM and 21.5 µM | 18 µM and 16.6 µM | –
COc1ccc(C2S/C(=C\c3ccc(O)cc3)C(=O)N2NC(=O)Cc2ccccc2)cc1 (configuration not stated) | > 100 µM | > 100 µM | – | > 100
NC(=O)N1N=C2c3ccccc3SC[C@H]2[C@@H]1c1ccccc1 | 79.9 µM | – | 56.8 µM | –
COC(=O)C1C2C=CC(C2)N1[C@@H](C)c1ccccc1 (some centres not stated) | – | > 100 µM | – | > 100
CC(=O)NC1=C(C)C(=O)c2c(nc3n2CCC3O)C1=N (configuration not stated) | 13.4 µM | 33.2 µM | 9.04 µM | 31.8
CCC(CC)n1c(C)nc2c1C(=O)c1ccccc1C2=O | – | > 100 µM | – | –
CC(=O)OC1c2ccccc2CCCCCCC12OCCO2 (configuration not stated) | > 100 µM | – | – | > 100
COc1ccc(C(C#N)NNc2nc(C)cc(=O)[nH]2)cc1OC (configuration not stated) | > 100 µM | > 100 µM | – | > 100
CC(C)C1CC(O)O[C@@H]([C@@H](C)[C@H]2CC(=O)[C@@H]3[C@@H]4[C@@H](O)[C@H](O)[C@H]5[C@@H](O)[C@H](O)CC[C@]5(C)[C@H]4CC[C@]23C)C1 (some centres not stated) | – | > 100 µM | 56 µM | –
